The record followed here is patent US12098144B2, “Piperazine indazole glucocorticoid receptor antagonists” (Corcept Therapeutics Incorporated, priority 2021, dated 2024).

What is called IC50 is the concentration that inhibits the measured activity by half. One may read the Ki as the equilibrium dissociation constant of an inhibitor or competing ligand from its target. The low end stands for tighter binding, the high end for weaker binding.

The target in the first assay is T1, glucocorticoid receptor (Homo sapiens, UniProt P04150).
T1 construct: endogenous in cells; ATCC cat
T1 sequence (P04150 1-777): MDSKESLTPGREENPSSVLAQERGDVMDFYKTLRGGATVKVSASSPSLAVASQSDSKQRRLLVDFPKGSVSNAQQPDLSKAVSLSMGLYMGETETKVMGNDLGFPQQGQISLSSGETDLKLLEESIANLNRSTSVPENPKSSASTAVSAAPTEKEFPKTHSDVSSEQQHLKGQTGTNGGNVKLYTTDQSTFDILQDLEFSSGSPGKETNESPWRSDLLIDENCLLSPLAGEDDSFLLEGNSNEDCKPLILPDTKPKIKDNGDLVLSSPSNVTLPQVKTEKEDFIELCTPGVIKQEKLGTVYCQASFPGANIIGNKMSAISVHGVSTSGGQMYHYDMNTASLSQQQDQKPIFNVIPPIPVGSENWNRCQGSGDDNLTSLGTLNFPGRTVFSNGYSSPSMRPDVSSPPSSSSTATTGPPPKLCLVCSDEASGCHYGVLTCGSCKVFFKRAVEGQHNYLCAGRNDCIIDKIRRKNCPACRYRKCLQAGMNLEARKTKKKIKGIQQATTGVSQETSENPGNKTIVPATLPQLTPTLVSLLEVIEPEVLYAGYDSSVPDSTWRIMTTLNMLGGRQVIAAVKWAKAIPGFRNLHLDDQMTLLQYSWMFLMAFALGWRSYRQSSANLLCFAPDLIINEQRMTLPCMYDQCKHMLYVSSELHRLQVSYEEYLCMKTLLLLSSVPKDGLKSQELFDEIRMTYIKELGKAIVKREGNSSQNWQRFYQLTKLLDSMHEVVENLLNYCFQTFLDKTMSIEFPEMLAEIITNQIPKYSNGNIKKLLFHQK
Nature of the assay: Hep G2 TAT IC50: inhibition of dexamethasone-induced TAT in HepG2 cells (384 well). The class given is cell-based.
Settings: not given
As to the method:
Glucocorticoid mediated activation of TAT occurs by transactivation of glucocorticoid response elements in the TAT promoter by glucocorticoid receptor/agonist complex.
HepG2 cells were cultured using MEME media supplemented with 10% (v/v) foetal bovine serum, 2 mM L-glutamine, 1% (v/v) NEAA, and 1% (v/v) penstrep, at 37° C., 5%/95% (v/v) CO2/air.
Compounds were diluted from a 10 mM stock via an Echo Acoustic liquid handler into 10 μL assay media to generate a 10-point half-log dilution curve.
HepG2 cells were then lysed with 8 μL of cell lysis buffer containing a protease inhibitor cocktail for 15 minutes at 25° C. […] After a 2-hour incubation at 37° C. the reaction was terminated by the addition of 8 μL of 5 M aqueous potassium hydroxide solution, and the plates incubated for a further 30 minutes at 37° C.
[compound] and fitting the data to a 4-parameter logistic equation.
Regarding `Cc1cc2c(cnn2-c2ccc(F)cc2)cc1C1CN(S(=O)(=O)c2cccnn2)CCN1CCC(F)(F)F` (single isomer, unassigned) [Example 176, 1-(4-fluorophenyl)-6-methyl-5-(4-pyridazin-3-ylsulfonyl-1-(3,3,3-trifluoropropyl)piperazin-2-yl)indazole], the IC50 turned out to be 841 nM. This counts as sub-micromolar.

`Cc1cc2c(cnn2-c2ccc(F)cc2)cc1C1CN(S(=O)(=O)N2CCOCC2)CCN1CCC(F)(F)F` (single isomer, unassigned) [Example 177, 4-(3-(1-(4-fluorophenyl)-6-methyl-indazol-5-yl)-4-(3,3,3-trifluoropropyl)piperazin-1-yl)sulfonylmorpholine] displayed an IC50 of 2460 nM.

`Cc1cc2c(cnn2-c2ccc(F)cc2)cc1C1CN(S(=O)(=O)N2CCOCC2)CCN1CC1CCC1` (single isomer, unassigned) [Example 178, 4-(4-(cyclobutylmethyl)-3-[1-(4-fluorophenyl)-6-methyl-indazol-5-yl]piperazin-1-yl)sulfonylmorpholine] showed an IC50 of 3430 nM.

On to `Cc1cc2c(cnn2-c2ccc(F)cc2)cc1C1CN(S(=O)(=O)N2CCOCC2)CCN1CC1CC(F)(F)C1` (single isomer, unassigned) [Example 179, 4-(4-((3,3-difluorocyclobutyl)methyl)-3-(1-(4-fluorophenyl)-6-methyl-indazol-5-yl)piperazin-1-yl)sulfonylmorpholine], for which the midpoint of inhibition, the IC50, lay at 2020 nM. Against the preceding compound, the IC50 is about 1.7-fold lower.

A further assay has as its target T1, glucocorticoid receptor. Description: Hep G2 TAT Ki: inhibition of dexamethasone-induced TAT in HepG2 cells (96 well). It is filed as cell-based. The following applies: challenge of 100 nM dexamethasone, IC50 converted to Ki by Cheng and Prusoff equation. An outline of the steps: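 Cells lysed 15 min at 4 °C; TAT enzyme reaction 2 h at 37 °C, stopped with KOH, 30 min further at 37 °C. Inhibition fitted to 4-parameter logistic.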
`Cc1cc2c(cnn2-c2ccc(F)cc2)cc1C1CN(C(=O)C(C)O)CCN1CC(C)C` (stereo not drawn) [Example 65, 1-(3-(1-(4-fluorophenyl)-6-methyl-1H-indazol-5-yl)-4-isobutylpiperazin-1-yl)-2-hydroxypropan-1-one] yielded a Ki of 370 nM.

The compound `CC(=O)N1CCN(CC(C)C)C(c2cc3cnn(-c4ccc(F)cc4)c3cc2C)C1` (stereo not drawn) [Example 66, 1-(3-(1-(4-fluorophenyl)-6-methyl-1H-indazol-5-yl)-4-isobutylpiperazin-1-yl)ethan-1-one] displayed a Ki of 260 nM.

`Cc1cc2c(cnn2-c2ccc(F)cc2)cc1C1CN(C(=O)c2cnn(C)n2)CCN1CC(C)C` (stereo not drawn) [Example 67, (3-(1-(4-fluorophenyl)-6-methyl-1H-indazol-5-yl)-4-isobutylpiperazin-1-yl)(2-methyl-2H-1,2,3-triazol-4-yl)methanone] displayed a Ki of 390 nM.

`Cc1cc2c(cnn2-c2ccc(F)cc2)cc1C1CN(S(=O)(=O)c2cnn(C)n2)CCN1CCCC(F)(F)F` (stereo not drawn) [Example 68, 1-(4-fluorophenyl)-6-methyl-5-(4-((2-methyl-2H-1,2,3-triazol-4-yl)sulfonyl)-1-(4,4,4-trifluorobutyl)piperazin-2-yl)-1H-indazole] came in with a Ki of 58 nM.

In turn, `Cc1cc2c(cnn2-c2ccc(F)cc2)cc1C1CN(S(=O)(=O)c2cnn(C)n2)CCN1CC1(C#N)CC1` (stereo not drawn) [Example 69, 1-((2-(1-(4-fluorophenyl)-6-methyl-1H-indazol-5-yl)-4-((2-methyl-2H-1,2,3-triazol-4-yl)sulfonyl)piperazin-1-yl)methyl)cyclopropane-1-carbonitrile] had a Ki of 180 nM.

For the compound `Cc1cc2c(cnn2-c2ccc(F)cc2)cc1C1CN(S(=O)(=O)c2cnn(C)n2)CCN1Cc1ccccn1` (stereo not drawn) [Example 70, 1-(4-fluorophenyl)-6-methyl-5-(4-((2-methyl-2H-1,2,3-triazol-4-yl)sulfonyl)-1-(pyridin-2-ylmethyl)piperazin-2-yl)-1H-indazole], the affinity, expressed as Ki, was 170 nM.

The compound `Cc1ccccc1CN1CCN(S(=O)(=O)c2cnn(C)n2)CC1c1cc2cnn(-c3ccc(F)cc3)c2cc1C` (stereo not drawn) [Example 71, 1-(4-fluorophenyl)-6-methyl-5-(4-((2-methyl-2H-1,2,3-triazol-4-yl)sulfonyl)-1-(2-methylbenzyl)piperazin-2-yl)-1H-indazole] yielded a Ki of 160 nM.

In turn, `Cc1cc2c(cnn2-c2ccc(F)cc2)cc1[C@@H]1CN(S(=O)(=O)c2cnn(C)n2)CCN1CCC(F)(F)F` [Example 84, (R)-1-(4-fluorophenyl)-6-methyl-5-(4-((2-methyl-2H-1,2,3-triazol-4-yl)sulfonyl)-1-(3,3,3-trifluoropropyl)piperazin-2-yl)-1H-indazole] displayed a Ki of 14 nM.

With `Cc1cc2c(cnn2-c2ccc(F)cc2)cc1C1CN(S(=O)(=O)c2cnn(C)n2)CCN1c1ccccc1` (stereo not drawn) [Example 86, 1-(4-fluorophenyl)-6-methyl-5-(4-((2-methyl-2H-1,2,3-triazol-4-yl)sulfonyl)-1-phenylpiperazin-2-yl)-1H-indazole], the Ki turned out to be 180 nM.

With `Cc1cc2c(cnn2-c2ccc(F)cc2)cc1C1CN(S(=O)(=O)c2cnn(C)n2)CC(C)N1CC(C)C` (stereo not drawn) [Example 87, 1-(4-fluorophenyl)-5-(1-isobutyl-6-methyl-4-((2-methyl-2H-1,2,3-triazol-4-yl)sulfonyl)piperazin-2-yl)-6-methyl-1H-indazole], the affinity corresponds to a Ki of 54 nM. This Ki lies about 3.3-fold lower than the previous one.

Regarding `Cc1cc2c(cnn2-c2ccc(F)cc2)cc1C1C(C)N(S(=O)(=O)c2cnn(C)n2)CCN1CC(C)C` (stereo not drawn) [Example 88, 1-(4-fluorophenyl)-5-(1-isobutyl-3-methyl-4-((2-methyl-2H-1,2,3-triazol-4-yl)sulfonyl)piperazin-2-yl)-6-methyl-1H-indazole], the Ki amounted to 35 nM. This Ki lies about 1.5-fold lower than the previous one.

Turning to `Cc1cc2c(cnn2-c2ccc(F)cc2)cc1C1CN(S(=O)(=O)c2cnn(C)n2)C(C)CN1CC(C)C` (stereo not drawn) [Example 89, 1-(4-fluorophenyl)-5-(1-isobutyl-5-methyl-4-((2-methyl-2H-1,2,3-triazol-4-yl)sulfonyl)piperazin-2-yl)-6-methyl-1H-indazole], the affinity, expressed as Ki, was 34 nM. This Ki and that of the compound before are within 1.5-fold of each other.

For `Cc1cc2c(cnn2-c2ccc(F)cc2)cc1C1C(=O)N(S(=O)(=O)c2cnn(C)n2)CCN1CC(C)C` (stereo not drawn) [Example 152, 3-(1-(4-fluorophenyl)-6-methyl-1H-indazol-5-yl)-4-isobutyl-1-((2-methyl-2H-1,2,3-triazol-4-yl)sulfonyl)piperazin-2-one], the inhibitory constant (Ki) amounted to 120 nM.

As for `Cc1cc2c(cnn2-c2ccc(F)cc2)cc1C1CN(S(=O)(=O)c2cnn(C)n2)CC(=O)N1Cc1ccccc1` (stereo not drawn) [Example 153, 1-benzyl-6-(1-(4-fluorophenyl)-6-methyl-1H-indazol-5-yl)-4-((2-methyl-2H-1,2,3-triazol-4-yl)sulfonyl)piperazin-2-one], the affinity, expressed as Ki, was 380 nM.

As for `CC(C)CN1CCN(S(=O)(=O)c2cnn(C)n2)CC1c1cc2cnn(-c3ccc(F)cc3)c2cc1F` (stereo not drawn) [Example 159, 6-fluoro-1-(4-fluorophenyl)-5-(1-isobutyl-4-((2-methyl-2H-1,2,3-triazol-4-yl)sulfonyl)piperazin-2-yl)-1H-indazole], the Ki came out at 220 nM.

Compound `Cc1cc2c(cnn2-c2ccc(F)cc2)cc1C1CN(S(=O)(=O)c2cnn(C)n2)CCN1CC(C)(C)O` (stereo not drawn) [Example 162, 1-(2-(1-(4-fluorophenyl)-6-methyl-1H-indazol-5-yl)-4-((2-methyl-2H-1,2,3-triazol-4-yl)sulfonyl)piperazin-1-yl)-2-methylpropan-2-ol] came in with a Ki of 260 nM.

Take `CC(C)CN1CCN(S(=O)(=O)c2cnn(C)n2)CC1c1cc2cnn(-c3ccc(F)cc3)c2cc1C(F)(F)F` (stereo not drawn) [Example 164, 1-(4-fluorophenyl)-5-(1-isobutyl-4-((2-methyl-2H-1,2,3-triazol-4-yl)sulfonyl)piperazin-2-yl)-6-(trifluoromethyl)-1H-indazole]: the affinity, expressed as Ki, was 170 nM.

Consider `Cc1cc2c(cnn2-c2ccc(=O)n(C)c2)cc1C1CN(S(=O)(=O)c2cnn(C)n2)CCN1CCC(F)(F)F` (stereo not drawn) [Example 165, 1-methyl-5-(6-methyl-5-(4-((2-methyl-2H-1,2,3-triazol-4-yl)sulfonyl)-1-(3,3,3-trifluoropropyl)piperazin-2-yl)-1H-indazol-1-yl)pyridin-2(1H)-one], for which the Ki is 81 nM. This Ki lies about 2.1-fold lower than the previous one.

`Cc1cc2c(cnn2-c2cccnc2)cc1C1CN(S(=O)(=O)c2cnn(C)n2)CCN1CCC(F)(F)F` (stereo not drawn) [Example 167, 6-methyl-5-(4-((2-methyl-2H-1,2,3-triazol-4-yl)sulfonyl)-1-(3,3,3-trifluoropropyl)piperazin-2-yl)-1-(pyridin-3-yl)-1H-indazole]: the Ki was determined as 59 nM. The Ki values of the last two compounds are within 1.5-fold of each other.

In turn, `Cc1cc2c(cnn2-c2cnn(C)c2)cc1C1CN(S(=O)(=O)c2cnn(C)n2)CCN1CCC(F)(F)F` (stereo not drawn) [Example 168, 6-methyl-1-(1-methyl-1H-pyrazol-4-yl)-5-(4-((2-methyl-2H-1,2,3-triazol-4-yl)sulfonyl)-1-(3,3,3-trifluoropropyl)piperazin-2-yl)-1H-indazole] came in with a Ki of 100 nM.
